Like-named read-outs stand apart in the source and are kept apart here.
Columns and labels:
[1] = system: TNFα expression by FcγR-activated primary human macrophages; assay: FcγR activation of primary human macrophages: TNFα expression; assay type: cell-based; details: Macrophage, human monocyte derived macrophages, plate-bound IgG
Text: (§1) FcγR activation of primary human macrophages. Autoantibody and immune-complex mediated activation through FcγR can be modeled by activation of macrophages with immobilized IgG. Primary human macrophages derived from GM-CSF treated monocytes up-regulate activation markers such as CD80, CD86, MHC antigens and the FcγRIII receptor. Human monocyte derived macrophages can be activated by plate-bound purified human IgG. This stimulation crosslinks the FcγRIII receptor and induces the secretion of pro-inflammatory cytokines such as TNFα, IL-6, IL 1β and MCP-1.
(§2) Generally, macrophages were cultured in plates previously incubated with purified IgG then washed. […] Cell culture supernatants were analyzed by ELISA for the expression of TNFα and IL-6.
(§3) Protocol: Human monocytes were isolated from buffy coats of healthy donors and negatively selected by magnetic cell sorting (Monocyte Isolation Kit II, Miltenyi Biotec). Purified monocytes were cultured in standard media supplemented with low-IgG FBS and 100 ng/mL GM-CSF for 5-7 days to induce macrophage differentiation. […] Supernatants were collected after 4 hrs and 18 hrs and analyzed for TNFα and IL-6, respectively.

[2] = system: IL-6 expression by FcγR-activated primary human macrophages; assay: FcγR activation of primary human macrophages: IL-6 expression; assay type: cell-based; details: Macrophage, human monocyte derived macrophages, plate-bound IgG
Text: as §1, §2, §3

BTK = target: T1, BTK (Homo sapiens, UniProt Q06187); assay: In vitro BTK kinase assay: BTK-POLYGAT-LS assay; assay type: biochemical; details: ATP 10 uM, polyGAT 100 nM, BTK 0.25 nM, 30 minutes
T1 construct: purchased Upstate 14-552
T1 sequence (Q06187 whole entry): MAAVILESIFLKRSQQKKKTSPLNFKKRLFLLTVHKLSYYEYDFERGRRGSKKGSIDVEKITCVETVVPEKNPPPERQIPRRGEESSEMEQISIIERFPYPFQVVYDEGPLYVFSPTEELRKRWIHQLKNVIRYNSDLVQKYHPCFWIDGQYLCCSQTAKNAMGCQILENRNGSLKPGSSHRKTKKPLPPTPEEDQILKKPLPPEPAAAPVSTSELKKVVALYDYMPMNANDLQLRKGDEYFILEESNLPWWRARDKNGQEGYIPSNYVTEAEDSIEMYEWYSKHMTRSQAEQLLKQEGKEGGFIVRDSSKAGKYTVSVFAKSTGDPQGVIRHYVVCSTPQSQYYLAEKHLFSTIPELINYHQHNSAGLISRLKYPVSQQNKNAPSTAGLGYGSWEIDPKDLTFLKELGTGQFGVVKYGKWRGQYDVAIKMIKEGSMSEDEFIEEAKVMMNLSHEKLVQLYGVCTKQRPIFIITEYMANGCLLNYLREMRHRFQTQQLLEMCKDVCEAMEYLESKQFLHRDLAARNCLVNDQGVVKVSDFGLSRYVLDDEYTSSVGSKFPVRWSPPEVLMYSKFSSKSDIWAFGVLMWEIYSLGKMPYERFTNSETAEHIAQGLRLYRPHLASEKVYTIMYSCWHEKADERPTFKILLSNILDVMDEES
Protocol: In vitro BTK kinase assay: BTK-POLYGAT-LS ASSAY. The purpose of the BTK in vitro assay was to determine compound potency against BTK through the measurement of IC50. Compound inhibition was measured after monitoring the amount of phosphorylation of a fluorescein-labeled polyGAT peptide (Invitrogen PV3611) in the presence of active BTK enzyme (Upstate 14-552), ATP, and inhibitor. The BTK kinase reaction was done in a black 96 well plate (costar 3694). For a typical assay, a 24 uL aliquot of an ATP/peptide master mix (final concentration; ATP 10 uM, polyGAT 100 nM) in kinase buffer (10 mM Tris-HCl pH 7.5, 10 mM MgCl2, 200 uM […], 5 mM DTT, 0.01% Triton X-100, and 0.2 mg/ml casein) was added to each well. Next, 1 uL of a 4-fold, 40× compound titration in 100% DMSO solvent was added, followed by adding 15 uL of BTK enzyme mix in 1× kinase buffer (with a final concentration of 0.25 nM). The assay was incubated for 30 minutes before being stopped with 28 uL of a 50 mM EDTA solution. Aliquots (5 uL) of the kinase reaction were transferred to a low volume white 384 well plate (Corning 3674), and 5 uL of a 2× detection buffer (Invitrogen PV3574, with 4 nM Tb—PY20 antibody, Invitrogen PV3552) was added. […] Time resolved fluorescence (TRF) on Molecular Devices M5 (332 nm excitation; 488 nm emission; 518 nm fluorescein emission) was measured.

[3] = system: collagen induced arthritis (CIA) in female Lewis rats; assay: Rat collagen-induced arthritis model; assay type: in vivo; details: oral gavage BID, therapeutic administration, read-out: Ankle histiopathology ED50
Text: The collagen induced arthritis (CIA) model in female Lewis rats requires primary T and B cell immune responses to type II collagen (CII) immunization for the development of a severe inflammatory disease (see Goldschmidt T J, Holmdahl R. Cell Immunol. 154(1):240-8, 1994; Helfgott, S. M., et al; Clin. Immunol. Immunopathol. 31:403, 1984; Holmdahl R. et al., J Autoimmun. 7(6):739-52, 1994; and Stuart, J. M., et al., J. Exp. Med. 155:1, 1982). Clinical disease onsets after a secondary CII challenge and the disease progresses over the following eight days.
Generally, female Lewis rats were immunized with bovine collagen type II in incomplete Freund's adjuvant. […] Clinical severity of arthritis was assessed by caliper measurements of ankles taken every day beginning on […].
Detailed protocol: Female Lewis rats were immunized subcutaneously with bovine collagen type II (1:1 emulsion of 2 mg/ml bovine CII in 0.01 N acetic acid: Incomplete Freund's Adjuvant) at three sites of back skin. […] Clinical severity of CIA was assessed by caliper measurements of ankles taken every day beginning on Day 9. […] Baseline ankle caliper measurements for established disease animals was assessed on day 1 of therapeutic dosing and animals were randomly assigned to treatment groups after confirmation of clinically disease onset (0.2751-0.2755 in). […]

[4] = system: PLCγ2 phosphorylation in Ramos cells; assay: BCR pathway activation: inhibition of phosphorylation of PLCγ2 in Ramos cells (electrochemiluminescence immunoassay); assay type: cell-based; details: Homo sapiens, 2 hours compound, 10 μg/mL anti-IgM for 5 minutes, R^2=0.90
Protocol: Protocol: One day before treatment, Ramos cells were plated at a density of 3×10^5 cells per well in 200 μl, of complete medium in a 96-well tissue culture filter plates (Millipore, Billerica, Mass.). On the day of treatment, used medium was removed by filtration and the cells re-suspended in 200 μL serum free medium containing serial compound dilutions and DMSO to 0.1%, then incubated for 2 hours at 37° C. Cells were stimulated for 5 minutes with 10 μg/mL goat anti-human IgM at 37° C. […] After washing with TBST, MSD read buffer was added and the luminescence was measured in an MSD SECTOR Imager 6000. Maximum response was determined as the average luminescence in wells containing stimulated cells treated with anti-IgM and DMSO. Minimal response was determined as the average luminescence in wells containing unstimulated cells treated with DMSO alone. The maximal and minimal values were used to normalize luminescence in compound treatment wells. The normalized values were plotted against compound concentration on a log scale then analyzed using Prizm software (GraphPad Software, Inc.). […]

Human CD19+ B cells = assay: Inhibition of BCR (anti-IgM)-induced human B cell proliferation; assay type: cell-based; details: human CD19+ B cells from different donors, 10 μg/ml anti-IgM, 72 hours, CellTiter-Glo, read-out: IC50, anti-IgM-induced B cell cellular metabolism (proliferation)
Protocol: In this context, cellular metabolism directly correlates with cellular activation and proliferation, and can also reflect relative cell survival during proliferation. […] The results are shown graphically in FIG. 6.
Protocol: Human B cells were isolated from peripheral blood mononuclear cells or unpurified buffy coats using Ficoll-Hypaque gradients (Amersham) and negatively selected by magnetic cell sorting (Human B Cell Isolation Kit II, Miltenyi Biotec). Target cell purity was determined by flow cytometry by staining for markers of B cells, T cells and monocytes (CD19, CD3, CD14, respectively; BD Biosciences). Data was collected on a FACsCaliber flow cytometer and analyzed using FloJo software (BD Biosciences). […] Negatively selected human B cells were stimulated with 10 μg/mL anti-IgM F(ab′)2 (Jackson ImmunoResearch) in 96 well plates. […] B cells were stimulated for 72 hr at 37° C., 5% CO2. Proliferation was measured using the CellTiter-Glo reagent (Promega), as measured on a luminometer. Mean values were plotted against maximum proliferation and IC50 values were determine using GraphPad Prism v5 software.

[5] = target: T2, hERG (human ether-à-go-go-related gene) potassium channel (Homo sapiens, UniProt Q12809); assay: FastPatch/QPatch hERG inhibition assay in HEK293 cells; assay type: cell-based; details: HEK293 cells stably transfected with hERG cDNA, QPatch HT, IC50 estimated from hERG inhibition data
T2 construct: host or cells: HEK293
T2 sequence (Q12809 whole entry): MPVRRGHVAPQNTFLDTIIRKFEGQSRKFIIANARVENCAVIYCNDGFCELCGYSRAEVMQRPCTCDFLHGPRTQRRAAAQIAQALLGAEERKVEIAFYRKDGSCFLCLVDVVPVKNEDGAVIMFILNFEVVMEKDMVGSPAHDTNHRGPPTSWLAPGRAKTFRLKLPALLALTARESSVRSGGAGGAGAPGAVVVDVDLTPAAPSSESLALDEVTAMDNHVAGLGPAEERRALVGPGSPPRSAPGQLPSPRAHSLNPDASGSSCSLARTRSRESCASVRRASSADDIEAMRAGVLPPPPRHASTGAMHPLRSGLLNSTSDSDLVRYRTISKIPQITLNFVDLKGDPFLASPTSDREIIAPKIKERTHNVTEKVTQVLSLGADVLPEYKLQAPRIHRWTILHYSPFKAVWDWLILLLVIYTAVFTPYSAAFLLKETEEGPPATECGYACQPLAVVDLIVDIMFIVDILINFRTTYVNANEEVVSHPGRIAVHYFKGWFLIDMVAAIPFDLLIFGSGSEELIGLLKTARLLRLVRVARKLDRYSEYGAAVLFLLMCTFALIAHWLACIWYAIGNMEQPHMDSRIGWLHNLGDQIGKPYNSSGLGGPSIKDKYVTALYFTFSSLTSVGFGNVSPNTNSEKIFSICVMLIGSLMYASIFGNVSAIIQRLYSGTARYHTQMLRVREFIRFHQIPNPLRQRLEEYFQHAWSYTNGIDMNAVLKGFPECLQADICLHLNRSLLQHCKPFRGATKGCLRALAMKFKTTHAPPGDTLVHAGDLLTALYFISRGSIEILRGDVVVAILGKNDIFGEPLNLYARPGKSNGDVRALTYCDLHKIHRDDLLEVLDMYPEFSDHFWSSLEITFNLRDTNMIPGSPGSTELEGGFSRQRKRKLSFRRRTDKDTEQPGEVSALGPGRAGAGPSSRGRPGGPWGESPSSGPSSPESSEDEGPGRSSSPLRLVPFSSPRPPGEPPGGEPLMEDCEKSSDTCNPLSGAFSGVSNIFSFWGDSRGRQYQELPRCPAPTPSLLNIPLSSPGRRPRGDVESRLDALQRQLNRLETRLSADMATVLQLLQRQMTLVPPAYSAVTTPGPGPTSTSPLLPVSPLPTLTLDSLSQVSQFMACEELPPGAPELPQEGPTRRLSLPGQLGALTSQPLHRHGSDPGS
Text: The in vitro effects of provided compounds was investigated on the hERG (human ether-à-go-go-related gene) potassium channel current (a surrogate for IKr, the rapidly activating, delayed rectifier cardiac potassium current) expressed in human embryonic kidney (HEK293) cells stably transfected with hERG cDNA. Cells were placed in HEPES-buffered physiological saline solution in a glass-lined 96-well plate and loaded with appropriate amounts of test and control solutions for a duration of a 3-minute exposure at each concentration. Test compound was diluted in 0.3% DMSO. An automated parallel patch clamp system, QPatch HT (Sophion Bioscience A/S, Denmark), was used to evaluate at various concentrations (e.g., 10 μM). The IC50 values were estimated based on the hERG inhibition data. The study was performed at ChanTest (14656 Neo Parkway, Cleveland, Ohio). The QPatch screen is further described by Janzen and Bernasconi (eds.), High Throughput Screening, Methods and Protocols, Second Edition, vol. 565, chapter 10, pg. 209-223, 2009.

- IC50 ([1]; ELISA (FIG. 7A), read-out: IC50 for inhibition of TNFα): 1080 nM
- IC50 ([1]; supernatants after 4 hrs, ELISA, read-out: IC50, inhibition of TNFα expression): 1100 nM
- IC50 ([2]; ELISA (FIG. 7B), read-out: IC50 for inhibition of IL-6): 350 nM
- IC50 ([2]; supernatants after 18 hrs, ELISA, read-out: IC50, inhibition of IL-6 expression): 350 nM
- IC50 (BTK): 1.97 nM
- EC50 [4]: 150 nM
SMILES: Nc1ncnc(N2CC[C@H](O)[C@@H](N3CCC[C@@H](Nc4cc(Cl)cc(C(F)(F)F)c4)C3=O)C2)c1F [Compound I]
- ED50 [3]: 4.08 mg/kg
- IC50 (Human CD19+ B cells): 260 nM
- IC50 [5]: 9400 nM
